Test results taken from patent US10874709B2, “Conjugate of salicylic acid and peptide” (CAREGEN CO., LTD., priority 2017, dated 2020).
Ends that are not written are not given here.

Experiments:
[1] = test system: HaCaT keratinocyte cell line; assay: Keratinocyte growth, sulforhodamine B colorimetric assay; type: cell-based; settings: 50 μM, 72 hours, SRB, absorbance 560 nm
Protocol: (Cancer Res. 48:4266(1988)) […] The cultured cell line was detached from the bottom of the culture plate using a 1% trypsin solution, and only cell precipitate was collected by centrifugation. The cell precipitate was suspended in DMEM without FBS, and then cultured for 24 hours under conditions of 37° C. and 5% CO2. 24 hours later, the medium was replaced by the same medium from which serum was completely removed. A blank sample in which the cell precipitate was dissolved sterile in 10% DMSO was prepared for standardization. Each of the compound 1 to the compound 4 (50 μM) of the present disclosure, salicylic acid (50 μM), and EGF (100 nM) as a positive control were treated. Incubation was carried out under the same conditions as above for 72 hours. After completing the incubation, each culture supernatant was removed and cells were fixed with ethanol and washed with phosphate buffer saline (PBS) three times. After removing the washing solution, the cells were treated with a colorimetric SRB solution, and then sufficiently washed with 1% acetic acid. The cells were observed under a microscope to examine living cells. Absorbance at UV 560 nm was measured to determine cell viability.

[2] = test system: TNF-α, IL-6, IL-1b, and COX-2; assay: Anti-inflammatory effect, Propionibacterium acnes-induced inflammatory cytokine mRNA by RT-PCR; type: cell-based; settings: keratinocyte, 50 μg/ml Propionibacterium acnes, 50 μM, 24 hours
Protocol: Anti-inflammatory effects of the compounds of the present disclosure were examined using Propionibacterium acnes. To this end, keratinocyte was seeded in a 6-well plate at a density of 300,000 cells per well, and then incubated in a DMEM culture medium (Gibco, USA) containing 10% FBS for 24 hours under conditions of 37° C. and 5% CO2. After replacing the medium by a fresh medium, the cells were treated with 50 μg/ml of Propionibacterium acnes, and then the treated Propionibacterium acnes was treated with each 50 μM of the compound 1 and the compound 3 of the present disclosure and salicylic acid used as the positive control, followed by incubation for 24 hours under the same conditions as above. RNA was isolated from the cells, and cDNA was synthesized using a cDNA synthesis kit (Intron, Korea). PCR premix (Intron, Korea) and primers for each of TNF-α, IL-6, IL-1b, and COX-2 in Table 3 below were used to perform PCR. mRNA levels of TNF-α, IL-6, IL-1 b and COX-2 were determined by 5% agarose gel electrophoresis.

[3] = Test of solubility in water; type: physicochemical; settings: distilled water, concentration of 10 mg/ml
[4] = test system: collagen, elastin, and fibronectin; assay: Extracellular matrix protein expression by immunocytostaining; type: cell-based; settings: NIH3T3 fibroblast, 50 μM, 72 hours, as compared with salicylic acid
Protocol: (§1) Effects of the compounds of the present disclosure on extracellular matrix expression were examined using NIH3T3 fibroblast. To this end, NIH3T3 fibroblast was seeded in a 6-well plate at a density of 300,000 cells per well, and then incubated in a DMEM culture medium (Gibco, USA) containing 10% FBS for 24 hours under conditions of 37° C. and 5% CO2. The cultured cell line was detached from the bottom of the culture plate using a 1% trypsin solution, and a cell precipitate was collected by centrifugation. The cell precipitate was suspended in DMEM without FBS, and then cultured for 24 hours under conditions of 37° C. and 5% CO2. 24 hours later, the medium was replaced by the same medium from which serum was completely removed. A blank sample in which the cell precipitate was dissolved sterile in 10% DMSO was prepared for standardization. Each of the compound 1 and the compound 3 of the present disclosure, and salicylic acid as a positive control were treated at a concentration of 50 μM. Incubation was carried out under the same conditions as above for 72 hours. Thereafter, to examine collagen, elastin, and fibronectin expression by immunocytostaining, cells were fixed with 4% paraformaldehyde, permeated with 0.5% Triton X-100, and blocked with 3% BSA. […]

Propionibacterium acnes = assay: Antibacterial effect, paper disc clear zone on agar plate; type: cell-based; settings: paper discs soaked with 200 mM, 3 days
Protocol: Antibacterial effects of the compounds synthesized in Example <1-2> were examined using Propionibacterium acnes. To this end, Propionibacterium acnes was first cultured on an agar plate. Paper discs were soaked with each 200 mM of the compound 1 to the compound 4 synthesized in Example <1-2> and salicylic acid, and then the paper disc soaked with the sample was placed on the agar plate on which Propionibacterium acnes had been cultured, followed by incubation. 3 days later, the size of a clear zone with no microbial growth was measured to determine the antibacterial effect of each compound.

[5] = test system: collagen, elastin, and fibronectin; assay: Extracellular matrix mRNA expression by RT-PCR; type: cell-based; settings: NIH3T3 fibroblast, 50 μM, 72 hours, as compared with salicylic acid
Protocol: as §1, with “hours.” for “hours. Thereafter, to examine collagen, elastin, and fibronectin expression by immunocytostaining, cells were fixed with 4% paraformaldehyde, permeated with 0.5% Triton X-100, and blocked with 3% BSA.”
Meanwhile, RNA was isolated from the cells treated in the same manner as the above experiment, and then cDNA was synthesized using a cDNA synthesis kit (Intron, Korea). […] Thereafter, mRNA levels of collagen, elastin, and fibronectin were determined by 5% agarose gel electrophoresis.

solubility in water [3] | Compound | growth of keratinocytes [1] | expression of inflammatory cytokines induced by Propionibacterium acnes [2] | protein expression levels of collagen, elastin, and fibronectin [4] | antibacterial effect (size of clear zone) (Propionibacterium acnes) | mRNA expression levels of collagen, elastin, and fibronectin [5]
hardly dissolved in water | O=C(O)c1ccccc1O [salicylic acid, 2-hydroxybenzoic acid] | inhibited growth of keratinocytes due to toxicity | hardly inhibited | – | – | –
– | compound 3: salicylic acid linked via covalent bond to peptide of SEQ ID NO: 3 (KLKKTETQ) (also: salicylic acid linked via covalent bond) | – | remarkably reduced | remarkably increased | remarkably increased antibacterial effects | remarkably increased
